This is an account of results in patent publication US20050256301A1 (The University of Queensland, priority 1998, published 2005).

The conditions of data set [1]: human, plasma.
For data set [2], the target named is endoproteinase Glu-C (Endo Glu-C) (Staphylococcus aureus, UniProt P0C1U8). As to conditions: pH 8.
For data set [3], the target named is P/Q type Ca channels (Rattus norvegicus, UniProt P54282). The format is binding.
The target in data set [4] is T1, N-type voltage-sensitive calcium channels (Rattus norvegicus, UniProt Q02294).
T1 construct: Rats were sacrificed by cervical dislocation and their brains removed and immediately frozen in liquid nitrogen; from tissue; host or cells: rat brain membrane
T1 sequence (Q02294 whole entry, looked up): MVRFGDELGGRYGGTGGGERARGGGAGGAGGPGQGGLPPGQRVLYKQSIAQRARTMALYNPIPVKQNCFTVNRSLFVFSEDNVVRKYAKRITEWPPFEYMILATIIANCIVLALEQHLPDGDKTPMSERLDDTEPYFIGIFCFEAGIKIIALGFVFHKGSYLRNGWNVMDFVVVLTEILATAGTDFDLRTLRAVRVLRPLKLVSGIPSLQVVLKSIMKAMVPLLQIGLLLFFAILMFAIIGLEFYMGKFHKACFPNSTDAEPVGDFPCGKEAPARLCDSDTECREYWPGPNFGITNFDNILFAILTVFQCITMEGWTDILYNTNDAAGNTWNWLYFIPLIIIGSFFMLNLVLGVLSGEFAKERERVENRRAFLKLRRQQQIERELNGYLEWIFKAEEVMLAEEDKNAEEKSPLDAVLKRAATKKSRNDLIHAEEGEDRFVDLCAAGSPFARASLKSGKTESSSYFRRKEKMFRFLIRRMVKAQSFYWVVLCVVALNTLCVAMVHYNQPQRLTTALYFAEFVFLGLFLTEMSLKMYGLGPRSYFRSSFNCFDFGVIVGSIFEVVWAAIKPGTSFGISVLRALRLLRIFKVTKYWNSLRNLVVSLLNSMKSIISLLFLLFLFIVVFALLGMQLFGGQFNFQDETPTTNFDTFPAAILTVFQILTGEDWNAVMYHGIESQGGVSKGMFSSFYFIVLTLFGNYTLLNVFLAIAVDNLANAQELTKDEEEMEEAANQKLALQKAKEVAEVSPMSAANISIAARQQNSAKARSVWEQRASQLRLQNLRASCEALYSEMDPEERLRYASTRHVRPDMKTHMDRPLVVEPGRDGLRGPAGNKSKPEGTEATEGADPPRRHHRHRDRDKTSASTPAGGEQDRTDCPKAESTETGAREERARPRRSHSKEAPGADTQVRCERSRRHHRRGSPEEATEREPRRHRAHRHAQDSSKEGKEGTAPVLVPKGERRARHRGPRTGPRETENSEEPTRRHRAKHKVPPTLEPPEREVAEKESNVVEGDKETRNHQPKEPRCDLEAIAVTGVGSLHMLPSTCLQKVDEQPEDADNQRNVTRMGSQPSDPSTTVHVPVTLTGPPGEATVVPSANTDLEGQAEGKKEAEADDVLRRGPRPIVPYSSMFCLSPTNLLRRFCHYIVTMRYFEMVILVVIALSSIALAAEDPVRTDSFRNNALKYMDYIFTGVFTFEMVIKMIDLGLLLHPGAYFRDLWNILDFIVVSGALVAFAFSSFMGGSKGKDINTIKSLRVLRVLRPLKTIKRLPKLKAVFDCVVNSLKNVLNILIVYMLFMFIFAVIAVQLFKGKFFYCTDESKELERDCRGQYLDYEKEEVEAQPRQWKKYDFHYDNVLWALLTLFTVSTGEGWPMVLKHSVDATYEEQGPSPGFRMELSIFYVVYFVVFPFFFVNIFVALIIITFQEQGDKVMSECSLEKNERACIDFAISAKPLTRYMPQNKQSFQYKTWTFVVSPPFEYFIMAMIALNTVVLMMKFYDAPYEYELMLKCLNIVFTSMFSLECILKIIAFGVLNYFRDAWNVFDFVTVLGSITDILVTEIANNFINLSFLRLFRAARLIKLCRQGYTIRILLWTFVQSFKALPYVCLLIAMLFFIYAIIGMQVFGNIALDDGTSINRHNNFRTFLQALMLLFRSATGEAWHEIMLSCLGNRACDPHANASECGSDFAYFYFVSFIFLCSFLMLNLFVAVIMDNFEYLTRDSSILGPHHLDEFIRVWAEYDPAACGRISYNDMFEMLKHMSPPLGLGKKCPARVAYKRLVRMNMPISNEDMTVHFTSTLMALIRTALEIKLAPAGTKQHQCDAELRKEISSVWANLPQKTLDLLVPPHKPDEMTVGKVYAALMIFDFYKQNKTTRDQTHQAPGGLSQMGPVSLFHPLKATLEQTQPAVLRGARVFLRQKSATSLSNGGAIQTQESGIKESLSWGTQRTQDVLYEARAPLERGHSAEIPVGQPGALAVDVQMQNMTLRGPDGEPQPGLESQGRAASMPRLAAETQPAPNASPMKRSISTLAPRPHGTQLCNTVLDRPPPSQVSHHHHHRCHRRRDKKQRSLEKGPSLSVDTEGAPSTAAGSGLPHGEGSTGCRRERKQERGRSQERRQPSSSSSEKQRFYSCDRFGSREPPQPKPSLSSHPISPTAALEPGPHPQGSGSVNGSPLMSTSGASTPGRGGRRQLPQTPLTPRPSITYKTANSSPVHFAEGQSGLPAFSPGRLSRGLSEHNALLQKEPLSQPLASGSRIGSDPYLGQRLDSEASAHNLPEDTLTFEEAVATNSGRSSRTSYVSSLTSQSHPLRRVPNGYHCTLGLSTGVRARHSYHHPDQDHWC
The class given is binding.

In data set [5] the test system is bovine adrenal chromaffin cells. The class given is cell-based.
For data set [6], the target named is human noradrenaline transporter (NET) (human) (UniProt P23975). Nature of the data set: displacement of [3H]nisoxetine from COS-7 hNET membranes. (In general: In a radioligand displacement assay an active substance lowers the binding of a labelled ligand.)
human noradrenaline transporter (NET) (human), sequence (P23975 whole entry): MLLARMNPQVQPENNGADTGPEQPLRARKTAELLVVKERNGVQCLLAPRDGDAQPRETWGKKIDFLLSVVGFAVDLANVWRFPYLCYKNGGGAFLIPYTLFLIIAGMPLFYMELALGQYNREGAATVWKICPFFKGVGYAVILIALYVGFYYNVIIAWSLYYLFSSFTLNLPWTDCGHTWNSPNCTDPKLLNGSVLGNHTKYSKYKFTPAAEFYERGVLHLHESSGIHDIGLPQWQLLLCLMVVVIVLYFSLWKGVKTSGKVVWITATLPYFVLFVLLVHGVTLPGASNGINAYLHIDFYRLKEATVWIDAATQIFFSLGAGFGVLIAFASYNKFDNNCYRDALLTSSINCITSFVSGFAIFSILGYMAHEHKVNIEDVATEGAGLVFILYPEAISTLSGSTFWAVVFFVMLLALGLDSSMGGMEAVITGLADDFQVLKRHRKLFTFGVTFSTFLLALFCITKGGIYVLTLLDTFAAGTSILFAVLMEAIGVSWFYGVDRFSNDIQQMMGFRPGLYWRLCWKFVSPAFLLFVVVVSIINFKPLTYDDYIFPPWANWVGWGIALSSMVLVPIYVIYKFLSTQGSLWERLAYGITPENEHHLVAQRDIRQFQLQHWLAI
The target is the same in data set [7]. The data set is described as above. This is another data set of the same source.
Data set [8] addresses N-type voltage-sensitive calcium channel (rat brain membrane) (rat) (UniProt Q02294).

Where two headings read alike, the source gives them in different places.

P/Q type Ca channels, sequence (P54282 whole entry, looked up): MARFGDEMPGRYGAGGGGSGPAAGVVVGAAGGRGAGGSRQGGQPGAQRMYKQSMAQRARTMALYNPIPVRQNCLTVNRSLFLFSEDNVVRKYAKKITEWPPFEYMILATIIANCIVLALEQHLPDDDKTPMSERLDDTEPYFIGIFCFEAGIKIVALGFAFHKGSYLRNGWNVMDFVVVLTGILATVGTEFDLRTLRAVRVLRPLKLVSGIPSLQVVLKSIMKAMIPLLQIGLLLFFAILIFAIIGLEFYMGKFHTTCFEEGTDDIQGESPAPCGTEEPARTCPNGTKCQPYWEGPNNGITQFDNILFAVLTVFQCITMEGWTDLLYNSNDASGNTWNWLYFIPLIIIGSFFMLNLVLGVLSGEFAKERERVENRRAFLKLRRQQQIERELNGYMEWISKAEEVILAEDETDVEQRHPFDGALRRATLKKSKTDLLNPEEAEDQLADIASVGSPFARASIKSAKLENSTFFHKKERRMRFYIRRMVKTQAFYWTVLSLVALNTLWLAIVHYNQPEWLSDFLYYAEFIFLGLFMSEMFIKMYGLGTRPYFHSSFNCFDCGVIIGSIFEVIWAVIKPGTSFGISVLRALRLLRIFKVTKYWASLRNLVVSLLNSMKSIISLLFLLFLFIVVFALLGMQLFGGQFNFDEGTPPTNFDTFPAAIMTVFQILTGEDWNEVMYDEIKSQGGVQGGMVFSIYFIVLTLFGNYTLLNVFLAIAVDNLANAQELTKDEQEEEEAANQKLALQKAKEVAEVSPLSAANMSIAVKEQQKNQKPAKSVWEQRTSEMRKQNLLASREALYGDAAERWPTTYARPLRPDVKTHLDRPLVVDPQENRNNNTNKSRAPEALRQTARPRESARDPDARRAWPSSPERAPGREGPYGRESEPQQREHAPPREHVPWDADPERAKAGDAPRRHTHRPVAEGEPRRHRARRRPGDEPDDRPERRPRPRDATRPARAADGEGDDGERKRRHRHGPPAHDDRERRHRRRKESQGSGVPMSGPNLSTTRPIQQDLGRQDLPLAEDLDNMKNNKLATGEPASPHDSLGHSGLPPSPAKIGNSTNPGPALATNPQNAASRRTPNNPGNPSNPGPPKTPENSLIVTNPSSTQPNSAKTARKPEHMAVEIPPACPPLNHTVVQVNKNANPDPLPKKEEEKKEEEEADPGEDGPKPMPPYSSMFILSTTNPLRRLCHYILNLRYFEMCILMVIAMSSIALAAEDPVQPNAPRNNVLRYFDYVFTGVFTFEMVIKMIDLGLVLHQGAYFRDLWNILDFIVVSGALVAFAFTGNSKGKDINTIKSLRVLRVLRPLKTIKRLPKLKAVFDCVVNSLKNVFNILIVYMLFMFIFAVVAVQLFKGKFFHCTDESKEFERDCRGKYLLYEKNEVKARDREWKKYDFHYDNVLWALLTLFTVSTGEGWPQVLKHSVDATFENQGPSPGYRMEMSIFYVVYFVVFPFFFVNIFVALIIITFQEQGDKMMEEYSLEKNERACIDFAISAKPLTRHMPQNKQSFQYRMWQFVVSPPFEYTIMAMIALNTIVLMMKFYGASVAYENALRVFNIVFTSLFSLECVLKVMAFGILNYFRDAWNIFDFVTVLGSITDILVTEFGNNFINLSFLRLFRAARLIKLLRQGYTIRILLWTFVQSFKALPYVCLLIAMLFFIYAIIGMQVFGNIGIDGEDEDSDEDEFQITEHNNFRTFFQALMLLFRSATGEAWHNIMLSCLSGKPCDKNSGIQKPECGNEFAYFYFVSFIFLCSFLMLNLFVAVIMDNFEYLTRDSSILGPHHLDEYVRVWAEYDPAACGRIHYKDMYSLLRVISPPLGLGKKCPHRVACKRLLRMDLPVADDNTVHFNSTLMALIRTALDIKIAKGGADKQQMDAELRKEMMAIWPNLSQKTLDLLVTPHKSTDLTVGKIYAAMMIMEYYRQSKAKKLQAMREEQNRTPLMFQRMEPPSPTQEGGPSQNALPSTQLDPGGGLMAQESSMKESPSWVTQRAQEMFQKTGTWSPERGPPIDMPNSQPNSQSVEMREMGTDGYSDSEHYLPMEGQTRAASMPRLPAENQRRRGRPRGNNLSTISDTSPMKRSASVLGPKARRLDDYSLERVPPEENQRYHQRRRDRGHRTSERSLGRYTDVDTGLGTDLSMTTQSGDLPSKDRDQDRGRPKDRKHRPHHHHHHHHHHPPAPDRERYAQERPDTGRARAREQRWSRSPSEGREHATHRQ

For orientation: half-life means the time needed for the level to fall by half in the phase considered. A low value points to rapid decline. For the molecule `CC(C)C[C@@H]1NC(=O)[C@H](CC(N)=O)NC(=O)[C@H](CO)NC(=O)[C@H](Cc2cnc[nH]2)NC(=O)[C@H](CCC(=O)O)NC(=O)[C@H](CC(C)C)NC(=O)[C@H](Cc2cnc[nH]2)NC(=O)[C@@H]2CSSC[C@H](NC(=O)CN)C(=O)N[C@@H](CSSC[C@@H](C(N)=O)NC1=O)C(=O)N[C@@H](CO)C(=O)N[C@@H](CC(N)=O)C(=O)N1CCC[C@H]1C(=O)N[C@@H](C(C)C)C(=O)N2` [MII, α-conotoxin MII], the results for the half-life in data set [1] and in data set [2] were about 16 h and about 10 h, respectively.
Consider “CKGKGAKCSRLMYDCCTGSCRSGKCTRNG [cyclo-MVIIA 2]”, for which, in data set [3], the “ability to displace 125I-MVIIC” value is listed as “did not show any ability to displace” and the “selectivity N-type over P/Q-type channel” value was “selectivity for the N-type channel over the P/Q-type channel”.
A word on the EC50: it is the concentration giving half of the maximal effect. On to “CKGKGAKCSRLMYDCCTGSCRSGKCTRNGLPG [cyclo-MVIIA 1]”, for which the EC50 in data set [4] came to 85 nM.
Consider “GLPVCKGKGAKCSRIMYDCCTGSCRSGKCTRG [SEQ ID NO. 7]”, for which the EC50 in data set [4] was 1.08 nM.
With “Gly Cys Cys Ser Asp Pro Arg Cys Asn Tyr Asp His Pro Glu Ile Cys Gly Gly Ala Ala Gly Gly [cVc1.1-6]”, in data set [5], the “inhibition of nicotine-evoked catecholamine release, activity relative to Vc1.1” value is given as “identical, within experimental error, to that of acyclic Vc1.1”.
In data set [6], “[Sec5,10]MrIA-NH2 (peptide; other documents disagree on this pair)” displayed an EC50 of 1380 nM and a log EC50 of -5.86.
In data set [6], “χ-conotoxin MrIA-NH2 (peptide; other documents disagree on this pair)” yielded a concentration giving a half-maximal response (EC50) of 1810 nM and a log EC50 of -5.74. In data set [7], this molecule came in with an EC50 of 1470 nM.
Turning to ω-conotoxin MVIIA (peptide), the EC50 in data set [8] worked out at 0.044 nM.
